Measured values: patent US7087717B2, “Sp110, a polypeptide component of the nuclear body” (The General Hospital Corporation, priority 2000, dated 2006)

Assays:
NB4 cells = assay: Sp110 mRNA level by RNA blot after cellular differentiation; format: cell-based, human; details: 1 μM, 48 hours
Protocol: To investigate the expression of Sp110 in cells of the monocyte/granulocyte lineage, RNA was prepared from the myeloid precursor cell lines HL60 and NB4 (HL60 cells are available from the American Type Culture Collection, Manassas, Va.). […] RNA was fractionated in formaldehyde-agarose gels (5 μg/lane) and equal loading of RNA was confirmed by staining 28S and 18S ribosomal RNA with ethidium bromide. […] Membranes were washed and analyzed by autoradiography. […] To examine the effect of cellular differentiation on Sp110 mRNA, NB4 cells were treated for 48 hours with all trans retinoic acid (ATRA) (1 μM).

[1] = tested on: human coronary artery smooth muscle cells (hCASMCs) and human umbilical vein endothelial cells (HUVECs); assay: Sp110 mRNA expression after cytokine exposure; format: cell-based; details: 200 u/ml
Protocol: Sp110 expression was also examined in human coronary artery smooth muscle cells (hCASMCs) and human umbilical vein endothelial, cells (HUVECs) following exposure to IFNα (200 u/ml). Expression of Sp110 mRNA was induced within 4 hours and reached a maximum level between 8 and 24 hours.

Molecule	level of Sp110 mRNA (NB4 cells)	time to induction of Sp110 mRNA expression [1] [h]
CC1=C(/C=C/C(C)=C/C=C/C(C)=C/C(=O)O)C(C)(C)CCC1 [ATRA, all trans retinoic acid]	increased	–
IFNα	–	≤ 4
